Results reported in paper PMC8537953 (Viruses, 2021).

Test system: SARS-CoV-2
Assay type: cell-based

SMILES: CC(N)C12CC3CC(CC(C3)C1)C2 (stereo not shown) [Rimantadine, rimantadine]
- % of culture cells infected: ≥ 80%
